Measurements published in article PMC5889867, “Inhibition of Protein Aggregation by Several Antioxidants” (Oxidative Medicine and Cellular Longevity, 2018).
“And” between values parts separate entries of the source, which are not always exact repeats. Equal entries are not always repeated.

These compounds were tested against T1, human stefin B (stB wt) (Homo sapiens, UniProt P04080, C3S) (assay: intrinsic Tyr fluorescence quenching, modified Stern-Volmer). Settings: 34 uM protein, 25 C, excitation 277 nm.
T1 construct: gene CSTB; Cys3 replaced by Ser
T1 sequence (P04080 1-98 C3S): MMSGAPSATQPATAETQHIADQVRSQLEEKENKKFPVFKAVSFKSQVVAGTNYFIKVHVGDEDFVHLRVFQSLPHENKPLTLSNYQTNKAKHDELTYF
Format: binding
In the case of `CC(=O)N[C@@H](CS)C(=O)O` [NAC, (2R)-2-acetamido-3-sulfanyl propanoic acid], the Ka is reported as “each compound also acts as a quencher of tyrosine fluorescence”. With `COc1cc(/C=C/C(=O)CC(=O)/C=C/c2ccc(O)c(OC)c2)ccc1O` [curcumin, (1E,6E)-1,7-bis(4-hydroxy-3-methoxyphenyl)hepta-1,6-diene-3,5-dione] the Ka was “binding constants show that curcumin binds more tightly than do other antioxidants studied here”. `O=c1c(O)c(-c2ccc(O)c(O)c2)oc2cc(O)cc(O)c12` [quercetin, 2-(3,4-dihydroxyphenyl)-3,5,7-trihydroxy-4H-chromen-4-one] was tested, and the Ka was “each compound also acts as a quencher of tyrosine fluorescence”. In the case of `Oc1ccc(/C=C/c2cc(O)cc(O)c2)cc1` [resveratrol, 3,5,40-trihydroxystilbene], the Ka is reported as “each compound also acts as a quencher of tyrosine fluorescence”. With `O=C1O[C@H]([C@@H](O)CO)C(O)=C1O` [vitamin C, (2R)-2-[(1S)-1,2-dihydroxyethyl]-3,4-dihydroxy-2H-furan-5-one] the Ka was “each compound also acts as a quencher of tyrosine fluorescence”.

The compounds below were run against human stefin B (stB wt), recombinant, Cys 3 replaced with Ser (human) (UniProt P04080) (assay: cross-linking; stB wt fibrillation mixture (34 uM protein, 0.015 M acetate buffer, 0.15 M NaCl, pH 4.8, 10% v/v TFE, room temperature) aged 24 hours, with or without antioxidants (NAC, vit C and others); cross-linked with 50-fold molar excess of BS3, then SDS-PAGE). Settings: not given.
For “human stefin B (stB wt), recombinant, Cys 3 replaced with Ser (from UniProt P04080 8-98) (natural protein)”, the stoichiometry N was 2 and > 4.
